# Laboratory results taken from ChEMBL document CHEMBL3991601, “The target landscape of clinical kinase drugs” (Science, 2017).
# Activity calls are given as the source filed them.
# How the values were obtained:
# [1] = target: Dual specificity protein kinase CLK4 (Homo sapiens, UniProt Q9HAZ1)
# UMP-CMP kinase = target: T1, UMP-CMP kinase (Homo sapiens, UniProt P30085)
# T1 sequence (P30085 whole entry): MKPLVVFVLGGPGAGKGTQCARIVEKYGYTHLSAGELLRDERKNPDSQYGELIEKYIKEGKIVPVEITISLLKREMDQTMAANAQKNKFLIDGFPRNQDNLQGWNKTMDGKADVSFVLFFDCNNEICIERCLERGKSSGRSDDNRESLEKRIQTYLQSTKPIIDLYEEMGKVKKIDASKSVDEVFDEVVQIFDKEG
# [2] = target: Dual specificity mitogen-activated protein kinase kinase 1 (Homo sapiens, UniProt Q02750)
# Dual specificity mitogen-activated protein kinase kinase 1, sequence (Q02750 whole entry): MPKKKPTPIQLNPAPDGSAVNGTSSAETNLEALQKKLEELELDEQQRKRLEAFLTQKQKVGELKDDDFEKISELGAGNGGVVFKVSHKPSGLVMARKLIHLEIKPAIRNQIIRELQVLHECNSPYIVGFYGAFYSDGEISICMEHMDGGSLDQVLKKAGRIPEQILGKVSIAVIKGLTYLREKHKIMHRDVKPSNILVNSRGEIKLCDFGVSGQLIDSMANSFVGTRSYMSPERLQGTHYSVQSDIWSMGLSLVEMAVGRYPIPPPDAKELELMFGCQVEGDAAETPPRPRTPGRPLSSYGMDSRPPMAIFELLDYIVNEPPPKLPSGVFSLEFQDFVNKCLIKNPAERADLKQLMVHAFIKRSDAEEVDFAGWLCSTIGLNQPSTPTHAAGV
# [3] = target: Serine/threonine-protein kinase 24 (Homo sapiens, UniProt Q9Y6E0)
# Serine/threonine-protein kinase 24, sequence (Q9Y6E0 whole entry): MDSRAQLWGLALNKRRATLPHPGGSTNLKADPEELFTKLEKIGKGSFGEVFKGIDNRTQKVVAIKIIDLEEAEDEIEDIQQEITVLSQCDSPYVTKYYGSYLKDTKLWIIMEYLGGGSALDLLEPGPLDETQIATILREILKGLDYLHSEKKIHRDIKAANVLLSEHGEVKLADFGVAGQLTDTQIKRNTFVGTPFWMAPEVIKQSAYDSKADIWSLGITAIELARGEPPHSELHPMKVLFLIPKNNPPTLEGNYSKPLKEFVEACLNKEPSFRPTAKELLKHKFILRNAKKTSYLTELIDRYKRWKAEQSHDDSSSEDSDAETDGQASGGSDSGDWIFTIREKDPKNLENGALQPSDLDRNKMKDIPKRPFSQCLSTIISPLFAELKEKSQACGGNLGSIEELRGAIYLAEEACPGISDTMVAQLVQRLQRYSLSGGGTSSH
# [4] = target: Dual specificity testis-specific protein kinase 1 (Homo sapiens, UniProt Q15569)
# Dual specificity testis-specific protein kinase 1, sequence (Q15569 whole entry): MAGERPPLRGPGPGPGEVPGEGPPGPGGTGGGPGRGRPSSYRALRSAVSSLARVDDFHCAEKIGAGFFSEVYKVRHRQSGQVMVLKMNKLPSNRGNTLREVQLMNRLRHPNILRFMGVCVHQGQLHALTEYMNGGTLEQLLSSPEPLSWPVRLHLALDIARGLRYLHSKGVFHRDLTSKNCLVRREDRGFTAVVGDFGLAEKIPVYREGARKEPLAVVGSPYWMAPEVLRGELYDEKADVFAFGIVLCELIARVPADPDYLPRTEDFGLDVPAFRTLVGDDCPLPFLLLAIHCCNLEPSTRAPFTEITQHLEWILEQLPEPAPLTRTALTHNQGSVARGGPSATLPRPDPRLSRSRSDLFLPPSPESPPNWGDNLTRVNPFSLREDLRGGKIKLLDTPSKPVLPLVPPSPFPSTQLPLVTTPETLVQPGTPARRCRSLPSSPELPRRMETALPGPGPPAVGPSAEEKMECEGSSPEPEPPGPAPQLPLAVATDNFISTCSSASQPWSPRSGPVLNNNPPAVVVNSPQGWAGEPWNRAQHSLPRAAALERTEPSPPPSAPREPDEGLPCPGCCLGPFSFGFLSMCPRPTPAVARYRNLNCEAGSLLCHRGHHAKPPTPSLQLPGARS
# [5] = target: T2, Thyroid hormone receptor-associated protein 3 (Homo sapiens, UniProt Q9Y2W1)
# T2 sequence (Q9Y2W1 whole entry): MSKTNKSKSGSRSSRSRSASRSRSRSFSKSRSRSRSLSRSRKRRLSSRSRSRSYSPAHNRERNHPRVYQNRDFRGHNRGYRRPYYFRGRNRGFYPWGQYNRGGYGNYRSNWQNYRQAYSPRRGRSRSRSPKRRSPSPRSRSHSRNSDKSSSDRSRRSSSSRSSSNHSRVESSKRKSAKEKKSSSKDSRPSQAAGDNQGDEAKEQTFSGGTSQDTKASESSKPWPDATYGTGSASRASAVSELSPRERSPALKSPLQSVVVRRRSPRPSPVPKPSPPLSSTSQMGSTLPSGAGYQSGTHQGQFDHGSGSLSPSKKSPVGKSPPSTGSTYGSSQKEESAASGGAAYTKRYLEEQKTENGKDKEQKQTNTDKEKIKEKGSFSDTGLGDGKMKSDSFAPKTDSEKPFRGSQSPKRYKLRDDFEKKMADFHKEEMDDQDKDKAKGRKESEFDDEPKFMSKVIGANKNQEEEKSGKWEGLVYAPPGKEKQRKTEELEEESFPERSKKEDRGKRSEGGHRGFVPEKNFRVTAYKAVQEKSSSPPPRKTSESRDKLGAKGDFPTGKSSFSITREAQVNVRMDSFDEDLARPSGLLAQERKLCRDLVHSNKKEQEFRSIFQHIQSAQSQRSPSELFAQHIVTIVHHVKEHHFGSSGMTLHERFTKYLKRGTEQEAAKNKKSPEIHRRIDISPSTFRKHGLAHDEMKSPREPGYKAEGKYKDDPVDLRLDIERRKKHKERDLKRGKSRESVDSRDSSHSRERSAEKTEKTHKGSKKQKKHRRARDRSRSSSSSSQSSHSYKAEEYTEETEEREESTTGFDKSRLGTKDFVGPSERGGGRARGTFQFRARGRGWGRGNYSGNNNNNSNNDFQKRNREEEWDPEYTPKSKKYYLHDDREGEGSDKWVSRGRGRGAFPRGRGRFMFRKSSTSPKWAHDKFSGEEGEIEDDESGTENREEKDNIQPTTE
# [6] = target: T3, Dual specificity protein kinase TTK (Homo sapiens, UniProt P33981)
# T3 sequence (P33981 whole entry): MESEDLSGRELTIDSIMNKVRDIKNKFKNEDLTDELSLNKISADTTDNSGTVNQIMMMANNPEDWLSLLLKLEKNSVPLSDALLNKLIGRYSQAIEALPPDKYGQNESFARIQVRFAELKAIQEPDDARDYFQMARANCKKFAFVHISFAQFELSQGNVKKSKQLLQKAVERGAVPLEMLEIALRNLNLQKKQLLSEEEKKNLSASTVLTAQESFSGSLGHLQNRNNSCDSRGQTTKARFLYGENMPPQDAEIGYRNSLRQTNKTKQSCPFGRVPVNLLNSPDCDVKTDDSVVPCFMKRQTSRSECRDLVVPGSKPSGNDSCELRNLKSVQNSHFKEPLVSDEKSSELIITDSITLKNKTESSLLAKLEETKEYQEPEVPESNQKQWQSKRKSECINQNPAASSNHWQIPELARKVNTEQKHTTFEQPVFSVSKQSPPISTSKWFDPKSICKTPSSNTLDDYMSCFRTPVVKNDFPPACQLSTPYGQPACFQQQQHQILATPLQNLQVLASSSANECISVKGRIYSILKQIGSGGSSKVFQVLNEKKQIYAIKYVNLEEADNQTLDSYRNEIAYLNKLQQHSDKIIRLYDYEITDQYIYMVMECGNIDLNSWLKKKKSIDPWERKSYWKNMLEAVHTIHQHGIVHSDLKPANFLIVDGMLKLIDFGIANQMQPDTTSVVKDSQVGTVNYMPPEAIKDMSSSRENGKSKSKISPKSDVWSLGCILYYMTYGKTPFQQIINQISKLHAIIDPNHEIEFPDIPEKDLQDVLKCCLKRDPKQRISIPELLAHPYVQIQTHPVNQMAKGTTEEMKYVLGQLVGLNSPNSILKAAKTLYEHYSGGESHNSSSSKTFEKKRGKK
# Also: in the data inactive means no Kd found up to 30 µM.
# Dual specificity protein kinase CLK4, sequence (Q9HAZ1 whole entry): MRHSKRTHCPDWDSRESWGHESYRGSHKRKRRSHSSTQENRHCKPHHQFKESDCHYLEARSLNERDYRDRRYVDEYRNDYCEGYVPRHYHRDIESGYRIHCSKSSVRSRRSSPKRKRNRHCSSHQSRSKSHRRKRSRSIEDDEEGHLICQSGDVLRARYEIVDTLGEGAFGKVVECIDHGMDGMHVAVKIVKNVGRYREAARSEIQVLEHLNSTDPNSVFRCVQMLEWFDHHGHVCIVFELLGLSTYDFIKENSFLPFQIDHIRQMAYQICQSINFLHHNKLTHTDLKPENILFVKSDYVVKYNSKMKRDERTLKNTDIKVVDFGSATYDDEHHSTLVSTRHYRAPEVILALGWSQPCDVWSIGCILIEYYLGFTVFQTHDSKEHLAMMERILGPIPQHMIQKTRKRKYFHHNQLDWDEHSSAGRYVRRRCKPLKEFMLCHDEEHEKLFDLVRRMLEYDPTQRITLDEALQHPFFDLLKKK
SMILES,Kd [1],Kd (UMP-CMP kinase),Kd [2],Kd [3],Kd [4],Kd [5],Kd [6]
Cn1cc(-c2[nH]c3cc(NC(=O)[C@H](N)C4CCCCC4)cc4c3c2C=NNC4=O)cn1,> 30 µM (inactive),> 30 µM (inactive),> 30 µM (inactive),> 30 µM (inactive),> 30 µM (inactive),,> 30 µM (inactive)
CN(c1ncccc1CNc1nc(Nc2ccc3c(c2)CC(=O)N3)ncc1C(F)(F)F)S(C)(=O)=O [PF-00562271],> 30 µM (inactive),> 30 µM (inactive),,,> 30 µM (inactive),,
COc1cc2ncnc(Nc3ccc(O)cc3)c2cc1OC [WHI-P131],> 30 µM (inactive),> 30 µM (inactive),> 30 µM (inactive),> 30 µM (inactive),> 30 µM (inactive),> 30 µM (inactive),> 30 µM (inactive)
NC[C@@](O)(c1ccc(Cl)cc1)c1ccc(-c2cn[nH]c2)cc1 [AT-13148],,> 30 µM (inactive),> 30 µM (inactive),,,> 30 µM (inactive),
Cn1c(=O)n(-c2ccc(C(C)(C)C#N)cc2)c2c3cc(-c4cnc5ccccc5c4)ccc3ncc21 [DACTOLISIB],,> 30 µM (inactive),,> 30 µM (inactive),> 30 µM (inactive),> 30 µM (inactive),> 30 µM (inactive)
COc1cc2c(Oc3ccc4[nH]c(C)cc4c3F)ncnc2cc1OCCCN1CCCC1 [CEDIRANIB],,> 30 µM (inactive),,,,,
CC(C)CC(=O)Nc1[nH]nc2c1CN(C(=O)C1CCN(C)CC1)C2(C)C [PHA-793887],,> 30 µM (inactive),> 30 µM (inactive),,,,
CC1(COc2ccc3c(c2)ncn3-c2ccc3cccc(N4CCC(N)CC4)c3n2)COC1 [CRENOLANIB],,0.003 µM (active),> 30 µM (inactive),0.057 µM (active),> 30 µM (inactive),,
C=CCn1c(=O)c2cnc(Nc3ccc(N4CCN(C)CC4)cc3)nc2n1-c1cccc(C(C)(C)O)n1 [ADAVOSERTIB],,> 30 µM (inactive),,,> 30 µM (inactive),> 30 µM (inactive),> 30 µM (inactive)
N#CCNC(=O)c1ccc(-c2ccnc(Nc3ccc(N4CCOCC4)cc3)n2)cc1 [MOMELOTINIB],,> 30 µM (inactive),,,,,> 30 µM (inactive)
O=S(=O)(c1cccc2c(O)nccc12)N1CCCNCC1 [HYDROXYFASUDIL],> 30 µM (inactive),> 30 µM (inactive),> 30 µM (inactive),> 30 µM (inactive),,> 30 µM (inactive),> 30 µM (inactive)
Cn1cnc2c(F)c(Nc3ccc(Br)cc3Cl)c(C(=O)NOCCO)cc21 [SELUMETINIB],,> 30 µM (inactive),,,,> 30 µM (inactive),
COCCN1CCN(Cc2ccc(-c3n[nH]c4c3C(=O)c3c(NC(=O)NN5CCOCC5)cccc3-4)cc2)CC1 [RGB-286638],0.002 µM,> 30 µM (inactive),> 30 µM (inactive),,> 30 µM (inactive),> 30 µM (inactive),
CCc1cc2c(cc1N1CCC(N3CCOCC3)CC1)C(C)(C)c1[nH]c3cc(C#N)ccc3c1C2=O [ALECTINIB],> 30 µM (inactive),> 30 µM (inactive),> 30 µM (inactive),,> 30 µM (inactive),> 30 µM (inactive),> 30 µM (inactive)
COc1cc(Nc2ncc(F)c(Nc3ccc4c(n3)N(COP(=O)(O)O)C(=O)C(C)(C)O4)n2)cc(OC)c1OC [FOSTAMATINIB],,> 30 µM (inactive),> 30 µM (inactive),> 30 µM (inactive),> 30 µM (inactive),,> 30 µM (inactive)
CC1(C)CNc2cc(NC(=O)c3cccnc3NCc3ccncc3)ccc21 [MOTESANIB],,> 30 µM (inactive),,,,,
COc1cc2nccc(Oc3ccc(NC(=O)C4(C(=O)Nc5ccc(F)cc5)CC4)cc3)c2cc1OC [CABOZANTINIB],> 30 µM (inactive),> 30 µM (inactive),> 30 µM (inactive),> 30 µM (inactive),,> 30 µM (inactive),> 30 µM (inactive)
CNC(=O)c1cccc(-c2ccc3c(N4CCOC[C@@H]4C)nc(N4CCOC[C@@H]4C)nc3n2)c1 [VISTUSERTIB],> 30 µM (inactive),> 30 µM (inactive),> 30 µM (inactive),,> 30 µM (inactive),> 30 µM (inactive),> 30 µM (inactive)
S=C(NCc1ccc2c(c1)OCO2)N1CCN(c2ncnc3c2oc2ccccc23)CC1 [AMUVATINIB],> 30 µM (inactive),> 30 µM (inactive),> 30 µM (inactive),> 30 µM (inactive),,> 30 µM (inactive),
COc1ccc(-c2ccc3ncc4c(c3c2)n(-c2ccc(N3CCNCC3)c(C(F)(F)F)c2)c(=O)n4C)cn1 [BGT-226 FREE BASE],,> 30 µM (inactive),> 30 µM (inactive),,> 30 µM (inactive),,> 30 µM (inactive)
O=S(=O)(c1cccc2cnccc12)N1CCCNCC1 [FASUDIL],,> 30 µM (inactive),,,> 30 µM (inactive),> 30 µM (inactive),> 30 µM (inactive)
C=CC(=O)Nc1cc(Nc2nccc(-c3cn(C)c4ccccc34)n2)c(OC)cc1N(C)CCN(C)C [OSIMERTINIB],> 30 µM (inactive),> 30 µM (inactive),> 30 µM (inactive),,,> 30 µM (inactive),
COc1cc2ncnc(Nc3ccc(F)c(Cl)c3)c2cc1NC(=O)/C=C/CN1CCCCC1 [DACOMITINIB ANHYDROUS],,> 30 µM (inactive),> 30 µM (inactive),,,> 30 µM (inactive),
O=C(NC[C@H](O)CO)c1ccncc1Nc1ccc(I)cc1F [PIMASERTIB],> 30 µM (inactive),> 30 µM (inactive),,> 30 µM (inactive),> 30 µM (inactive),> 30 µM (inactive),> 30 µM (inactive)
C#Cc1cccc(Nc2ncnc3cc4c(cc23)OCCOCCOCCO4)c1 [ICOTINIB],> 30 µM (inactive),> 30 µM (inactive),> 30 µM (inactive),> 30 µM (inactive),> 30 µM (inactive),> 30 µM (inactive),

# The next lines start with the values.
Kd [1],Kd (UMP-CMP kinase),Kd [2],Kd [3],Kd [4],Kd [5],Kd [6],SMILES
> 30 µM (inactive),> 30 µM (inactive),> 30 µM (inactive),> 30 µM (inactive),> 30 µM (inactive),> 30 µM (inactive),,NC(=O)c1ccc(N(C(N)=O)c2c(F)cccc2F)nc1-c1ccc(F)cc1F [VX-702]
> 30 µM (inactive),> 30 µM (inactive),> 30 µM (inactive),> 30 µM (inactive),> 30 µM (inactive),> 30 µM (inactive),,Cc1cc(Nc2nc(N[C@@H](C)c3ncc(F)cn3)ncc2Cl)n[nH]1 [AZD-1480]
> 30 µM (inactive),> 30 µM (inactive),> 30 µM (inactive),> 30 µM (inactive),,> 30 µM (inactive),,COc1cccc2cc(-c3nc([C@H]4CC[C@H](C(=O)O)CC4)n4ncnc(N)c34)[nH]c12 [OSI-027]
> 30 µM (inactive),> 30 µM (inactive),> 30 µM (inactive),> 30 µM (inactive),> 30 µM (inactive),> 30 µM (inactive),,COc1ccc2c(OCc3nnc4ccc(-c5ccccc5)nn34)ccnc2c1 [AMG-208]
